Each block holds one compound with its values, some of them ahead of it.
Key:
[1] = target: GTP binding domain of Ras; settings: literature, kinetic and filter binding measurements with radiolabeled GDP and GTP; cited from earlier work
K-Ras (G12C) [2] = target: T1, K-Ras (G12C) (Homo sapiens (Human), UniProt P01116, G12C); experiment: Scintillation Proximity Assay (SPA), GTP affinity for binding domain
Excerpt: (§1) For the first time, the affinity of GTP for the GTP binding domain of K-Ras utilizing a Scintillation Proximity Assay (SPA) and MicroScale Thermophoresis (MST) has been measured and disclosed herein. These methods were not available when Wittinghofer and colleagues undertook their studies.
(§2) This therefore led to the novel, unanticipated conclusion that compounds such as small molecules could be discovered that would bind to a Ras GTP binding domain and compete with the binding of GTP to Ras.
(§3) See Khawaja et al., “Scintillation proximity assay in lead discovery”, Expert Opin. Drug Discov., 2008 November; 3(11):1267-80 regarding SPA procedures. See the following references regarding MST technology: Wienken et al., Nature Communications (2010), Protein binding assays in biological liquids using MicroScale Thermophoresis; Jerabek-Willemsen et al., ASSAY and Drug Development Technologies (2011), Molecular interaction studies using MicroScale Thermophoresis; Lin et al., Cell (2012), Inhibition of basal FGF receptor signaling by dimeric Grb2; Seidel et al., Angewandte Chemie (2012), Label-Free MicroScale Thermophoresis discriminates sites and affinity of protein-ligand binding; Seidel et al., Methods (2012), MicroScale Thermophoresis quantifies biomolecular interactions under previously challenging conditions; Parker & Newstead, Nature (2014), Molecular basis of nitrate uptake by the plant nitrate transporter NRT1.1; and Jerabek-Willemsen et al., Journal of Molecular Structure (2014), MicroScale Thermophoresis: Interaction analysis and beyond.

K-Ras (Q61H) [3] = target: T2, K-Ras (Q61H) (Homo sapiens (Human), UniProt P01116, Q61H); experiment: as above
T2 sequence (P01116-2 other isoform, or with tags, fused parts or gaps Q61H): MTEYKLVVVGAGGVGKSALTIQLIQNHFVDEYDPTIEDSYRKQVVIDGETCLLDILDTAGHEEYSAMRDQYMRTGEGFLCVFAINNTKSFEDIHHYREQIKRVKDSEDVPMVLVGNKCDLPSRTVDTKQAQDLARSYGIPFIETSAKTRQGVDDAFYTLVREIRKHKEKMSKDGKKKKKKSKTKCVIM
Excerpt: as §1, §2, §3

K-Ras (G12D) [4] = target: T3, K-Ras (G12D) (Homo sapiens (Human), UniProt P01116, G12D); experiment: as above
T3 sequence (P01116-2 other isoform, or with tags, fused parts or gaps G12D): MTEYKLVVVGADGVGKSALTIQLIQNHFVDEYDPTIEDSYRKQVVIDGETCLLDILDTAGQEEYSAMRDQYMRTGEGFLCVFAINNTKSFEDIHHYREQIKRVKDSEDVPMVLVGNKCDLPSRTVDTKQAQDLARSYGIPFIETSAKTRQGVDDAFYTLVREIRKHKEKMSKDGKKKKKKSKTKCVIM
Excerpt: as §1, §2, §3

K-Ras (Q61H/G12D) [5] = target: T4, K-Ras (Q61H/G12D) (Homo sapiens (Human), UniProt P01116, G12D/Q61H); experiment: as above
T4 sequence (P01116-2 other isoform, or with tags, fused parts or gaps G12D/Q61H): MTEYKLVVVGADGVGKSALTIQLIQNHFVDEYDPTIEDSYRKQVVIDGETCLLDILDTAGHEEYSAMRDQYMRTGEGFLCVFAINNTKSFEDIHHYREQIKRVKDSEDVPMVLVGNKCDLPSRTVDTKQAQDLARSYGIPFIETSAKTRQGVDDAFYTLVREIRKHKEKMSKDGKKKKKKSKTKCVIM
Excerpt: as §1, §2, §3

KRas wild type [6] = target: T5, KRas wild type (Homo sapiens (Human), UniProt P01116); experiment: as above
T5 sequence (P01116-2 other isoform, or with tags, fused parts or gaps): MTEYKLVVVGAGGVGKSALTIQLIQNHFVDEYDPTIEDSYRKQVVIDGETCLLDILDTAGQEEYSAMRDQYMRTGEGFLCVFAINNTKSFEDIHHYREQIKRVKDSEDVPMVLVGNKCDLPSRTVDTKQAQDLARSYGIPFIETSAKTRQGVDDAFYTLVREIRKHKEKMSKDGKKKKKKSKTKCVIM
Excerpt: as §1, §2, §3

K-Ras (Q61H/G12C) [7] = target: T6, K-Ras (Q61H/G12C) (Homo sapiens (Human), UniProt P01116, G12C/Q61H); experiment: as above
T6 sequence (P01116-2 other isoform, or with tags, fused parts or gaps G12C/Q61H): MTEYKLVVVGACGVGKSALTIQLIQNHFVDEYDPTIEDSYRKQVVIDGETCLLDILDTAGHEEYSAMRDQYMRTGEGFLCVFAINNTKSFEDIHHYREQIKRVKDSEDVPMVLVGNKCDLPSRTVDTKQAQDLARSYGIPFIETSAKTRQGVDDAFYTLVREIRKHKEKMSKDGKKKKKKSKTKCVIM
Excerpt: as §1, §2, §3

K-Ras (G12C) [8] = target: T1, K-Ras (G12C); experiment: MicroScale Thermophoresis (MST), GTP affinity for binding domain
Excerpt: as §1, §2, §3

K-Ras (Q61H) [9] = target: T2, K-Ras (Q61H); experiment: as above
Excerpt: as §1, §2, §3

K-Ras (G12D) [10] = target: T3, K-Ras (G12D); experiment: as above
Excerpt: as §1, §2, §3

K-Ras (Q61H/G12D) [11] = target: T4, K-Ras (Q61H/G12D); experiment: as above
Excerpt: as §1, §2, §3

KRas wild type [12] = target: T5, KRas wild type; experiment: as above
Excerpt: as §1, §2, §3

K-Ras (Q61H/G12C) [13] = target: T6, K-Ras (Q61H/G12C); experiment: as above
Excerpt: as §1, §2, §3

Rac-1 [14] = target: T7, Rac-1 (Homo sapiens (Human), UniProt P63000); experiment: as above
[15] = target: Rac-1 and Rho-A members of the Rho subfamily; experiment: SPA and MST studies, summary range for Rho subfamily members; settings: read-out: affinity of GTP for the binding domain of Rho subfamily members
Excerpt: as §2, §3

[16] = target: K-Ras GTP binding domain across wild type and mutant K-Ras; experiment: SPA and MST studies, summary range across K-Ras forms; settings: read-out: affinity of GTP for the K-Ras GTP binding domain
Excerpt: as §1, with “colleagues (referenced above)” for “colleagues”
as §2, §1
See Khawaja et al., “Scintillation proximity assay in lead discovery”, Expert Opin. Drug Discov., 2008 November; 3(11):1267-80 regarding SPA procedures. […]

Rac-1 [17] = target: T7, Rac-1; experiment: Scintillation Proximity Assay (SPA), GTP affinity for binding domain
Rho-A [18] = target: T8, Rho-A (Homo sapiens (Human), UniProt P61586); experiment: MicroScale Thermophoresis (MST), GTP affinity for binding domain
T8 sequence (P61586 whole entry, the tested form may be a part): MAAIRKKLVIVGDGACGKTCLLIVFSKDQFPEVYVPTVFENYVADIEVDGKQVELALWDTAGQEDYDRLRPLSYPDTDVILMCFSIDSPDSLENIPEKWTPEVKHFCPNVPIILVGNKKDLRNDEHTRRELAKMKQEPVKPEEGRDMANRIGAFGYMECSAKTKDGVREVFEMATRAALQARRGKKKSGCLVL

Rho-A [19] = target: T8, Rho-A; experiment: Scintillation Proximity Assay (SPA), GTP affinity for binding domain
[20] = system: MIA-PACA2 pancreatic cancer cell lines; experiment: Cell proliferation assay, alternate assay conditions (DAPI fluorescence); type: cell-based; settings: Homo sapiens, MIA PaCa-2; for inhibition at 10 µM: * = tested at 10 μM, alternate conditions, MIA-PACA2; for IC50: MIA-PACA2, same assay as the % inhibition (alternate conditions)
Experimental: Cell lines: Tumor-derived pancreatic cancer cell lines MIA-PACA2 were purchased from ATCC and grown in complete DMEM-High Glucose medium supplemented with penicillin (100 U/mL), streptomycin (100 μg/mL), and 10% heat-inactivated FBS at 37° C. in a humidified incubator with 5% CO2.
Method: Cells are plated at 4000 cells/well density in 96-wells plate. The next day tested small molecules are added to the cells in the final concentration of 10 μM in the presence of 0.3% DMSO and 10% FBS. After small molecules addition, cells are incubated for 4 days at 37° C. in a humidified incubator with 5% CO2. For IC50 value determination, serial dilutions of compounds were added to cells under the same conditions.
Assay: At the end of the incubation period, cell cultures are fixed with a 50-50 mixture (v/v) acetone-methanol for 10 minutes at −20° C., followed by rehydration in PBS for 10 minutes at room temperature. After rehydration, cells are stained with DAPI (1 μg/ml) in PBS for 10 minutes at room temperature, followed by 3 washes with PBS. After staining, DAPI fluorescence is recorded (358 nm excitation/461 nm emission) with the 96-well plate reader Molecular Devices Spectramax M3; degree of small mole-cule-dependent proliferation inhibition is calculated from raw data assuming No Serum cells value as 100%.

[21] = system: MIA-PACA2 pancreatic cancer cell lines; experiment: Cell proliferation assay (CellTiter 96 AQueous One); type: cell-based; settings: Homo sapiens, MIA PaCa-2; for IC50: MIA-PACA2, compound tested under both conditions, which assay gave the IC50 is not stated; for inhibition at 30 µM: MIA-PACA2

T1 sequence (P01116-2 other isoform, or with tags, fused parts or gaps G12C): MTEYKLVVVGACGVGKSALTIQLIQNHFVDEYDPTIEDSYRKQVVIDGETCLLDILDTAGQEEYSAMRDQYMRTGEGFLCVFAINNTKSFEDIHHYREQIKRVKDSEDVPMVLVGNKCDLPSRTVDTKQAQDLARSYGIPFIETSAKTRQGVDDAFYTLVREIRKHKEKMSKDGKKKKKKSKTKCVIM

Compound: Nc1nc2c(ncn2[C@@H]2O[C@H](COP(=O)(O)OP(=O)(O)O)[C@@H](O)[C@H]2O)c(=O)[nH]1 [GDP]
affinity for the GTP binding domain of Ras [1]: single to double digit picomolar

Kd (K-Ras (G12C) [2]): 258 ± 18 nM
Kd (K-Ras (Q61H) [3]): 118 ± 11 nM
Kd (K-Ras (G12D) [4]): 270 ± 15 nM
Kd (K-Ras (Q61H/G12D) [5]): 135 ± 19 nM
Kd (KRas wild type [6]): 243 ± 15 nM
Kd (K-Ras (Q61H/G12C) [7]): 104 ± 11 nM
Kd (K-Ras (G12C) [8]): 207 ± 46 nM
Kd (K-Ras (Q61H) [9]): 157 ± 21 nM
Kd (K-Ras (G12D) [10]): 244 ± 12 nM
Kd (K-Ras (Q61H/G12D) [11]): 268 ± 108 nM
Kd (KRas wild type [12]): 463 ± 2 nM
Kd (K-Ras (Q61H/G12C) [13]): 266 ± 57 nM
Kd (Rac-1 [14]): 166 ± 10 nM
Kd [15]: 120 to 170 nM
Kd [16]: 100 to 465 nM
Kd (Rac-1 [17]): 151 ± 14 nM
Kd (Rho-A [18]): 130 ± 5 nM
Kd (Rho-A [19]): 129 ± 12 nM
Compound: Nc1nc2c(ncn2[C@@H]2O[C@H](COP(=O)(O)OP(=O)(O)OP(=O)(O)O)[C@@H](O)[C@H]2O)c(=O)[nH]1 [GTP]
affinity for the GTP binding domain of Ras [1]: single to double digit picomolar

Compound: COCc1ccc(-c2csc3c(O)nc(-c4ccccn4)nc23)cc1F [drawing 1722]
inhibition at 10 µM [20]: 76 to 100%
IC50 [21]: < 100 nM
inhibition at 30 µM [21]: 76 to 100%

Compound: Oc1nc(-c2ccccn2)nc2c(-c3cccc(C(F)(F)F)c3)csc12 [drawing 1749]
inhibition at 10 µM [20]: 76 to 100%
IC50 [21]: 100 to 500 nM
inhibition at 30 µM [21]: 76 to 100%

IC50 [21]: 501 to 1000 nM
Compound: CC(C)COc1ccc(-c2csc3c(O)nc(-c4ccccn4)nc23)cn1 [drawing 1753]
inhibition at 10 µM [20]: 76 to 100%
inhibition at 30 µM [21]: 76 to 100%

Compound: Oc1nc(-c2ccccn2)nc2c(-c3ccccn3)csc12 [drawing 1772]
inhibition at 10 µM [20]: 76 to 100%
IC50 [21]: > 1000 nM
inhibition at 30 µM [21]: 76 to 100%

Compound: CC(C)COc1ccc(-c2csc3c(O)nc(-c4cn(C)cn4)nc23)cn1 [drawing 1907]
inhibition at 10 µM [20]: 76 to 100%

Compound: Cn1cnc(-c2nc(O)c3scc(-c4cccc(OC(F)(F)F)c4)c3n2)c1 [drawing 1908]
inhibition at 10 µM [20]: 76 to 100%

IC50 [20]: > 1000 nM
Compound: Oc1nc(-c2ccncn2)nc2c(-c3cccc(C(F)(F)F)c3)csc12 [drawing 1909]
inhibition at 10 µM [20]: 76 to 100%

Compound: Oc1nc(-c2ncccn2)nc2c(-c3cccc(C(F)(F)F)c3)csc12 [drawing 1910]
inhibition at 10 µM [20]: 76 to 100%

Compound: CC(C)Oc1ccc(-c2csc3c(O)nc(-c4nccn4C)nc23)cc1F [drawing 1911]
inhibition at 10 µM [20]: 76 to 100%

Compound: Cc1sc2c(O)nc(-c3nccn3C)nc2c1-c1ccc(OC(C)C)c(F)c1 [drawing 1912]
inhibition at 10 µM [20]: 76 to 100%

Compound: CC(C)Oc1ccc(-c2c(-c3ccccc3)sc3c(O)nc(-c4nccn4C)nc23)cc1F [drawing 1913]
inhibition at 10 µM [20]: 76 to 100%

IC50 [20]: 100 to 500 nM
Compound: CC(C)COc1ccc(-c2csc3c(O)nc(-c4nccn4C)nc23)cn1 [drawing 1914]
inhibition at 10 µM [20]: 76 to 100%

Compound: COc1ccc(-c2csc3c(O)nc(-c4nccn4C)nc23)cn1 [drawing 1915]
inhibition at 10 µM [20]: 76 to 100%

Compound: Cn1ccnc1-c1nc(O)c2scc(-c3ccccc3)c2n1 [drawing 1916]
inhibition at 10 µM [20]: 76 to 100%

Compound: Cn1ccnc1-c1nc(O)c2scc(-c3ccccc3Cl)c2n1 [drawing 1917]
inhibition at 10 µM [20]: 76 to 100%

Compound: Cn1ccnc1-c1nc(O)c2scc(-c3ccc(F)cc3F)c2n1 [drawing 1918]
inhibition at 10 µM [20]: 76 to 100%

Compound: Cn1ccnc1-c1nc(O)c2scc(-c3cccc(Cl)c3)c2n1 [drawing 1919]
inhibition at 10 µM [20]: 76 to 100%

Compound: COC(C)(C)c1ccc(-c2csc3c(O)nc(-c4nccn4C)nc23)cc1 [drawing 1920]
inhibition at 10 µM [20]: 76 to 100%

Compound: Cn1ccnc1-c1nc(O)c2scc(-c3ccc(C(C)(C)C)cc3)c2n1 [drawing 1921]
inhibition at 10 µM [20]: 76 to 100%

Compound: COCCNc1nc(-c2ccccn2)nc2sc(-c3ccccc3)c(-c3ccccn3)c12 [drawing 1922]
inhibition at 10 µM [20]: 76 to 100%

Compound: Cc1sc2c(O)nc(-c3nccn3C)nc2c1-c1ccc(F)cc1F [drawing 1923]
inhibition at 10 µM [20]: 76 to 100%

IC50 [20]: 501 to 1000 nM
Compound: COCCNc1nc(-c2nccn2C)nc2sc(-c3ccccc3)c(-c3ccccn3)c12 [drawing 1924]
inhibition at 10 µM [20]: 76 to 100%

Reference: patent US10940139B2, “Compounds that interact with the Ras superfamily for the treatment of cancers, inflammatory diseases, rasopathies, and fibrotic disease” (Shy Therapeutics LLC, priority 2017, dated 2021)
